Columns and labels:
[1] = test system: pentobarbital-anesthetized dog; assay: Test for in vivo myocardial inotropic activity in anesthetized dog; details: intravenous; for % Change Blood Pressure: aortic blood pressure; for % Change Myocardial Contractility: dP/dt of left ventricular blood pressure
Protocol: Test for in vivo myocardial inotropic activity in anesthetized dog This screen consists of determining the effects of increasing intravenous doses of compound on myocardial contractility (dP/dt mad of left ventricular blood pressure), heart rate and aortic blood pressure of the pentobarbital-anesthetized dog. Adult mongrel dogs of either sex are anesthetized with pentobarbital, 35 mg/kg, IV, and are subsequently maintained under anesthesia with a continuous infusion of pentabarbital, 3.5 mg/kg/hour. The trachea is intubated but the animals are permitted to breathe spontaneously. A cannula is inserted into the femoral vein for administrating test agents. A Millar catheter tip pressure transducer or a fluid filled catheter is inserted into the ascending aorta via the femoral artery for measuring aortic blood pressure. A Millar catheter tip pressure transducer is passed into the left ventricle via the left carotid artery for measuring left ventricular blood pressure. Needle electrodes are.placed subcutaneously for recording a lead II electrocardiogram (ECG). Left ventricular and aortic blood pressures are recorded on a strip chart recorder. Heart rate, using a . biotachometer triggered from the R wave of the ECG, and the first derivative of left ventricular blood pressure (dP/dt), obtained with a differentiator amplifier coupled to the corresponding pressure amplifier, are also recorded. A period of at least 30 minutes is utilized to obtain control data prior to administration of test compound. Depending on solubility, the compounds are dissolved in 0.9% saline solution or in dilute HCI or NaOH (0.1 or 1.0 N) and are diluted to volume with normal saline. Ethanol or dimethylacetamide can be used as solvents if adequate dilutions can be made. Appropriate vehicle controls are administered when needed. Each dose of the test compound is administered in volume of 0.1 ml/kg over a period of one minute.

conscious rat = assay: Direct monitoring of aortic blood pressure and heart rate from conscious rats; format: in vivo; details: doses 1, 3, 10, and 30 mg/kg
Description: A method for the direct monitoring of aortic blood pressure and heart rate from conscious rats
The continuous monitoring of pulsatile blood pressure from unrestrained conscious rats surgically equipped with polyethylene cannulas was accomplished by means of a computer assisted data capture scheme (CADCS). The basic elements of the methodology are the cannulation procedure and the CADCS. Method
Cannulation Procedure: Rats were anesthetized with Telazol (1:1 tiletamine HCI and zolazepam HCI; WU PD, Ann Arbor, MI) 20-40 mg/kg IM and the descending aorta exposed via a midline incision. Cannulus fabricated from polyethylene tubing (Clay Adams, Parsippany, NJ) were inserted into the aorta via an undersized puncture hole below the renal arteries. The puncture hole was made by a 23 G disposable needle with a section of the aorta clamped off above and below the puncture site. The cannulas, consisting of a PE100 (0.86 mm ID) body and a PE50 (0.58 mm ID) tip, were attached to a trocar, inserted through the psoas muscle, and passed subcutaneously along the midline of the back and externalized between the ears. The cannulas were anchored to the psoas muscle and between the scapulae (3-0 green braided suture; Deknatel, Queens Village, NY). The midline incision was closed in two steps (muscle first, skin second) using continuous over-and-over sutures (4-0 chronic; Ethicon, Somerville, NJ). Each rat was then given penicillin 30,000 units subcutaneously (Penicillin G Procaine Sterile Suspension; Parke-Davis, Detroit, MI).
The rats were fitted with a harness-spring-swivel assembly designed to protect the cannula and to provide the rat relative freedom of movement. The harnesses were fabricated from nylon hook and loop tape (Velcro, Manchester, NH) cemented to a metal plate to which spring wires (18-8 stainless steel, Paragon Spring; Chicago, IL) were attached to brass swivels (BRS/LVE, Bellville: MD). Each polyethylene cannula was channeled through a spring and connected through a swivel to a pressure transducer (Model P23Gb; Statham Instruments; Hato Rey, Puerto Rico) and an infusion pump (Sage model 234-7; Orion Research, Cambridge, MA) by means of PE100 tubing. While on test, each rat received a continuous slow infusion of heparinized saline solution […] or 40 units of heparin per 24-hour period) to prevent clot formation. Additional "flushes" of the cannula with heparinized saline were carriedd out when the aortic pulse pressure (systolic minus diastolic) was less than 25 mm Hg.
CADCS: The pulsatile blood pressure and heart rate of each of 32 rats was monitored every minute by means of two in-laboratory microcomputers communicating directly with a data concentrator computer. The data were first stored on the data concentrator disk and then transferred to a magnetic tape for analysis and report generation by the main research computer (Varian V-74 or IBM). The overall scheme involved modulating the primary signal from the pressure transducer, generating the primary data set of the one- minute values for systolic, diastolic, and mean blood pressures and heart rate by the in-lab microcomputer and the storage, analysis, and report generation by the main research computer.
The transducers were connected to analog signal conditioning modules. The modules provided a regulated excitation voltage for the transducers, amplification as required to interface the microprocessors and an active low pass filter to compensate for the pressure wave form distortion produced by the flexible, fluid filled, narrow lumened cannula. The distortion was 22-26 Hz and thus provided a reliable estimate of both systolic and diastolic blood pressure.
The microcomputers (one for each of two groups of 16 rats) were connected to the input components through the module interface units, an analog-to-digital converter for the pressure wave form signal and the digital inputs for the dose and event marker switches. […]

## O=c1ccc(-c2ccc(-n3ccnc3)cc2)n[nH]1 [Example 13a, 6-[4-(1H-Imidazol-1-yl)phenyl]-3(2H)-pyridazinone]
[1]; dose 0.01 mg/kg
  % Change Heart Rate: 0.0%
  % Change Blood Pressure: 0.0%
  % Change Myocardial Contractility: 3%
[1]; dose 0.03 mg/kg
  % Change Heart Rate: 6.0%
  % Change Blood Pressure: −1.5%
  % Change Myocardial Contractility: 15%
[1]; dose 0.10 mg/kg
  % Change Heart Rate: 16.0%
  % Change Blood Pressure: −6.0%
  % Change Myocardial Contractility: 40%
[1]; dose 0.31 mg/kg
  % Change Heart Rate: 32.0%
  % Change Blood Pressure: −9.0%
  % Change Myocardial Contractility: 78%

## O=C1CCC(c2ccc(OCCn3ccnc3)cc2)=NN1 [Example 12, 4,5-Dihydro-6-[4-[2-(1H-imidazol-1-yl)ethoxy]phenyl]-3(2H)-pyridazinone]
Conscious rat
  aortic blood pressure: significant reduction

## O=C1CCC(c2ccc(-n3cnc4c3CCCC4)cc2)=NN1 [Example 8, 4,5-Dihydro-6-[4-(4,5,6,7-tetrahydro-1H-benzimidazol-1-yl)phenyl]-3(2H)-pyridazinone]
Conscious rat
  aortic blood pressure: significant reduction
[1]; dose 0.01 mg/kg
  % Change Heart Rate: −3.0%
  % Change Blood Pressure: −2.5%
  % Change Myocardial Contractility: 10%
[1]; dose 0.03 mg/kg
  % Change Heart Rate: −15.0%
  % Change Blood Pressure: −7.0%
  % Change Myocardial Contractility: 21%
[1]; dose 0.10 mg/kg
  % Change Heart Rate: −17.0%
  % Change Blood Pressure: −11.0%
  % Change Myocardial Contractility: 51%
[1]; dose 0.31 mg/kg
  % Change Heart Rate: −18.0%
  % Change Blood Pressure: −17.0%
  % Change Myocardial Contractility: 95%
[1]; dose 1.0 mg/kg
  % Change Heart Rate: −7.0%
  % Change Blood Pressure: −27.0%
  % Change Myocardial Contractility: 127%

## O=c1ccc(-c2ccc(-n3cnc4c3CCCC4)cc2)n[nH]1 [Example 15, 6-[4-(4,5,6,7-Tetrahydro-1H benzimidazol-1-yl)phenyl]-3(2H)-pyridazinone]
Conscious rat
  aortic blood pressure: significant reduction

## O=c1ccc(-c2cccc(-n3ccnc3)c2)n[nH]1 [Example 14, 6-[3-(1H-Imidazol-1-yl)phenyl]-3(2H)-pyridazinone]
Conscious rat
  aortic blood pressure: significant reduction

## O=C1CCC(c2cccc(-n3ccnc3)c2)=NN1 [Example 6, 4,5-Dihydro-6-[3-(1-imidazol-1-yl)phenyl]-3(2H)-pyridazinone]
Conscious rat
  aortic blood pressure: significant reduction
[1]; dose 0.01 mg/kg
  % Change Heart Rate: −2.0%
  % Change Blood Pressure: 1.0%
  % Change Myocardial Contractility: 6%
[1]; dose 0.10 mg/kg
  % Change Heart Rate: −1.0%
  % Change Blood Pressure: −1.0%
  % Change Myocardial Contractility: 36%
[1]; dose 0.30 mg/kg
  % Change Heart Rate: 2.0%
  % Change Blood Pressure: −8.0%
  % Change Myocardial Contractility: 71%
[1]; dose 1.0 mg/kg
  % Change Heart Rate: 11.0%
  % Change Blood Pressure: −20.0%
  % Change Myocardial Contractility: 114%

## O=C1CCC(c2ccc(-n3ccnc3)cc2)=NN1 [Example 3a, 4,5-Dihydro-6-[4-(1H imidazol-1-yl)phenyl]-3(2H)-pyridazinone]
[1]; dose 0.01 mg/kg
  % Change Heart Rate: −4.0%
  % Change Blood Pressure: −2.0%
  % Change Myocardial Contractility: 9%
[1]; dose 0.03 mg/kg
  % Change Heart Rate: −4.0%
  % Change Blood Pressure: −6.0%
  % Change Myocardial Contractility: 32%
[1]; dose 0.10 mg/kg
  % Change Heart Rate: −1.0%
  % Change Blood Pressure: −10.5%
  % Change Myocardial Contractility: 57%
[1]; dose 0.31 mg/kg
  % Change Heart Rate: 2.0%
  % Change Blood Pressure: −21.5%
  % Change Myocardial Contractility: 87%

## O=C1CCC(c2ccc(-n3cnnc3)cc2)=NN1 [Example 10]
Conscious rat
  aortic blood pressure: significant reduction

## O=c1ccc(-c2ccc(OCCn3ccnc3)cc2)n[nH]1 [Example 16, 6-[4-[2-(1H Imidazol-1-yl)ethoxy]phenyl]-3(2H)-pyridazinone]
Conscious rat
  aortic blood pressure: significant reduction

## O=C1CCC(c2ccc(-n3cccc3)cc2)=NN1 [Example 11, 4,5-Dihydro-6-[4-(H-pyrrol-1-yl)phenyl]-3(2H)-pyridazinone]
Conscious rat
  aortic blood pressure: significant reduction

From patent publication EP0075436B1, “Substituted 4,5-dihydro-6-(substituted)-phenyl-3(2H)-pyridazinones and 6-(substituted)phenyl-3(2H)-pyridazinones” (WARNER-LAMBERT COMPANY, priority 1981, dated 1983)
